Source: patent US4565814A, “Pyridazine derivatives having a psychotropic action and compositions” (priority 1983, dated 1986)
Read-outs that look alike come from different tables or passages of the source.

Key:
[1] = tested on: CD1 (Charles River) female mice; test: Despair behaviour (Porsolt forced-swim immobility), intraperitoneal; type: in vivo, mouse; conditions: Table 8, 1 hour before test, ++ significant (Student test)
Procedure: The principle of this test is as follows: when a mouse is placed in a narrow vessel filled with water, it struggles and then, after 2 to 4 minutes, it becomes immobile and floats on its abdomen, with its back hunched and its back paws tucked under the body, and it only makes the few movements necessary to keep its head above the water. This is the so-called despair reaction. Certain psychotropic drugs, in particular antidepressants, lengthen the time for which the mouse struggles. The following protocol was selected: The products to be studied were administered intraperitoneally 1 hour before the test. For the test, the animals are placed in a narrow vessel (10×10×10 cm) filled with water to a height of 6 cm, the temperature being 24° C. plus or minus 2° C. The animals are left in the water for 6 minutes and the time for which the animal remains immobile between the 2nd and 6th minutes is measured. The activity of the substance is the greater, the shorter this time. Each substance was studied on a batch of 10 mice. The results are the average of at least two experiments.

[2] = tested on: reserpine-induced ptosis in CD1 (Charles River) female mice; test: Antagonism of reserpine-induced ptosis, intraperitoneal; type: in vivo; conditions: Mus musculus, ip, i.p., reserpine 2 mg/kg i.v., read 1 hour after reserpine
Procedure: ANTAGONISM OF RESERPINE-INDUCED PTOSIS
This test, which is described by GOURET (Journal de pharmacologie Paris 1973, 4 (1), 105-128), was carried out on CD1 (Charles River) female mice weighing 20 g plus or minus 1 g. Reserpine causes ptosis 1 hour after its intravenous administration; certain antidepressants oppose this ptosis.
The following protocol was selected:
The substances to be studied were administered intraperitoneally. The reserpine is administered intravenously at the same time, at a dose of 2 mg/kg.

[3] = tested on: CD1 Charles River female mice with unilateral lesion of the striatum; test: Rotational behaviour after unilateral 6-hydroxydopamine lesion of the striatum, intraperitoneal; type: in vivo, mouse; conditions: for Rotational behaviour, intraperitoneal administration (change of rotations vs control): Table 8, 1 hour after administration; for Rotational behaviour of mice (intraperitoneal administration): Table 9, decrease: minus sign printed at end of the dose line, * p < 0.01, Student test
Procedure: CD1 Charles River female mice weighing from 20 to 24 g first undergo unilateral lesion of the striatum by the stereotaxic injection of 6-hydroxydopamine at a dose of 8 μg per animal. One week after this operation, the product is administered intraperitoneally to groups of 7 mice. The number of rotations is evaluated over 2 minutes, 1 hour after the administration of the product. Rotations on the same side as the lesion are counted as positive and those on the opposite side are counted as negative.

in vivo = type: in vivo; conditions: mouse, in vivo, ip; Table 9; i.p.; mortality noted for 24 hours; read-out: Toxicity, intraperitoneal administration, LD50
Procedure: (§1) The products to be studied were administered intraperitoneally in increasing doses to batches of 10 mice.
(§2) The 50% lethal dose, that is to say the dose causing the […] of 50% of the animals studied, is determined from the results obtained for each of the products studied.

mice = test: in vivo; type: in vivo; conditions: i.p., mortality noted for 24 hours
Procedure: as §1, §2

[4] = Table 8, read-out: Reserpine-induced ptosis, intraperitoneal administration, ED50
[5] = Table 9, read-out: Test for the antagonism of reserpine-induced ptosis, intraperitoneal administration, ED50
[6] = 2 mg/kg i.p., ++ significant (Student test)

SMILES | Despair behaviour, intraperitoneal administration (change of immobility time) ([1]; 10 mg/kg i.p.) | ED50 [2, 4] | Rotational behaviour, intraperitoneal administration (change of rotations vs control) ([3]; 3 mg/kg i.p., n.s.: not significant) | ED50 [2, 5] | Rotational behaviour of mice (intraperitoneal administration) ([3]; 0.5 mg/kg i.p.) | Rotational behaviour of mice (intraperitoneal administration) ([3]; 2 mg/kg i.p.) | LD50 at 24 h (in vivo) | Despair behaviour, intraperitoneal administration (change of immobility time) ([1]; 5 mg/kg i.p.) | Rotational behaviour, intraperitoneal administration (change of rotations vs control) ([3]; 0.125 mg/kg i.p., ++ significant (Student test)) | Rotational behaviour, intraperitoneal administration (change of rotations vs control) [3, 6] | Toxicity, intraperitoneal administration, LD50 (mice; Table 8) | Toxicity, intraperitoneal administration, LD50 (mice; Table 9) | Rotational behaviour, intraperitoneal administration (change of rotations vs control) ([3]; 0.1 mg/kg i.p., ++ significant (Student test))
CN(C)CCCN1c2ccccc2CCc2ccccc21 [iminaprine] | -38% | 2.4 mg/kg | -6% | – | – | – | – | – | – | – | – | – | –
N#Cc1cc(-c2ccsc2)nnc1NCCN1CCOCC1 [SR 95 274 A] | – | – | – | 2.6 mg/kg | -60% | -82% | > 300 mg/kg | – | – | – | – | – | –
Cc1cc(-c2ccccc2)nnc1NCCN1CCOCC1 [Minaprine] | – | 5 mg/kg | – | 5 mg/kg | – | -82% | – | -31% | -53% | -82% | 63 mg/kg | 63 mg/kg | –
Cl.Cl.N#Cc1cc(-c2ccccc2)nnc1NCCN1CCOCC1 [SR 95191, 3-(2-Morpholinoethylamino)-4-cyano-6-phenylpyridazine dihydrochloride] | – | 3.9 mg/kg | – | – | – | – | – | -26% | – | -107% | – | – | -60%
